{
  "source": "paper PMC4122966",
  "about": "“Novel VCP modulators mitigate major pathologies of rd10, a mouse model of retinitis pigmentosa” (Scientific Reports, 2014)",
  "key": {"[1]": {"system": "cellular VCP functions", "experiment": "immunoblot of ubiquitinated proteins, CHOP (ER stress) and LC3 (autophagy) in cultured cells", "type": "cell-based", "text": "Figure 1 Structures and characterization of KUSs, novel VCP modulators. (a) Structures and IC50 values of KUS11, KUS31, KUS69, KUS94, KUS121, and KUS187. […] (b) ATPase activity assays of recombinant human […], comparing KUSs and DBeQ. (c) Immunoblot analysis of ubiquitinated proteins, an ER stress marker (CHOP), and an autophagy indicator (LC3), comparing KUSs and DBeQ. As a control, MG132, a proteasome inhibitor, was used for the analysis. Actin served as a loading control. Complete scans of the different blots are presented in Supplementary Fig. 7. (d) Comparison of KUSs and DBeQ for cell death-inducing activities. HeLa cells were treated with 50 μM DBeQ or KUSs for 24 hours. […]"}, "[2]": {"system": "essentially all tested cultured cells", "experiment": "cellular toxicity on cultured cells", "type": "cell-based", "details": "up to 50 μM"}, "[3]": {"system": "C57BL/6 wild-type mice", "experiment": "electroretinogram of adult wild-type mice administered KUS", "type": "in vivo, mouse", "method": "Electroretinogram recording was performed to assess the visual function of rd10 mice at ages of 21, 25, 29, and 33 days. Mice were dark-adapted overnight before anesthetization. Electroretinograms were recorded using a gold loop corneal electrode with a light-emitting diode (Mayo Corp., Inazawa, Japan). A reference electrode was placed in the mouth and a ground electrode was inserted to the anus. Stimuli were produced with a light emitting diode stimulator (Mayo Corp.). The electroretinogram response signals were amplified, digitized at 10 kHz with a band-pass filter of 0.3 to 500 Hz, and analyzed (PowerLab 2/25; AD instruments, New South Wales, Australia). The a- and b-wave amplitudes and a-wave latency of the mixed cone and rod response (ISCEV (International Society for Clinical Electrophysiology of Vision) standard; scotopic 3.0)[34] were analyzed.\nSupplementary Figure 6 (a) Time-dependent changes of b-wave amplitude in dark-adapted electroretinograms in non-treated C57BL/6 wild-type mice. b-wave […]\n= 0.004. (b, c) a-wave (b) and b-wave (c) amplitude of adult C57BL/6 wild-type mice administered saline or KUS121 for 7 days. […]\namplitudes of a-and b-waves between mice administered saline or KUS121 (a-wave […]\n92.9 vs. 420.8 ± 52.6, P = 0.86, t-test). Error bars indicate SD.\nLane 1, 1µM MG132; lane 2, control; lane 3, 5µM DBeQ; lane 4, 10µM DBeQ; lane 5, 15µM DBeQ; lane 6: KUS11; lane 7, KUS31; lane 8, KUS69; lane 9, KUS 94; lane 10, […]\nLane 1, Tm(-); lane 2, control; lane 3, KUS69; lane 4, KUS94; lane 5, KUS121; lane 6, KUS187; lane 7, Tm(-); lane 8, control; lane 9, 0.1mM ATP; lane 10, 0.3mM ATP; lane 11, 1mM ATP; lane 12, 3mM methylpyruvate; lane 13, 10mM methylpyruvate."}, "[4]": {"system": "HeLa cells", "experiment": "immunocytochemistry of laminin γ1 aggregation in tunicamycin-treated cells", "type": "cell-based", "details": "HeLa, Tm 0.5 μg/ml, 5 hours, 50 μM KUS", "method": "Figure 4 KUSs and ATP each prevented a decrease of ATP levels and ameliorated ER stress in tunicamycin-treated cells. (a) Immunocytochemical analyses of HeLa cells by an anti-laminin γ1 antibody. HeLa cells were treated with 0.5 μg/ml of tunicamycin (Tm) for 5 hours in the presence of KUSs (50 μM), ATP (0.1, 0.3, and 1 mM), methylpyruvate (MePyr) (3 and 10 mM), or vehicle alone (DMSO). Then, cells were fixed and subjected to immunocytochemical analyses. Normally growing HeLa cells were also analyzed (Control). Scale bar, 10 μm. (b) Measurements of the relative amounts of ATP per cell. HeLa cells were treated with tunicamycin (Tm, 0.5 μg/ml) for 24 hours in the presence of KUSs (50 μM) or ATP (0.1 and 1 mM), or vehicle alone (DMSO), and were harvested. Then, ATP amounts from 1.5 × 10^5 cells were measured. * P < 0.05, ** P < 0.01. Error bars indicate SD. (c) Western blot analyses on CHOP. HeLa cells were treated with 0.5 μg/ml of tunicamycin for 5 hours in the presence of KUSs (50 μM), ATP (0.1, 0.3, and 1 mM), methylpyruvate (MePyr) (3 and 10 mM), or vehicle alone (-). Then, cells were harvested and subjected to western blot analyses. Actin served as a loading control. Complete scans of the different blots are presented in Supplementary Fig. 9."}},
  "data": [
    {"molecule": "Cc1cc(F)ccc1-c1ccc(/N=N/c2cc(S(=O)(=O)O)c3ccccc3c2N)cn1", "note": "[KUS121]", "values": [
      {"measurement": "induction of accumulation of ubiquitinated proteins, ER stress (CHOP), autophagy (LC3)", "setting": "[1]", "value": "did not induce any of these phenotypes"},
      {"measurement": "apparent cellular toxicity", "setting": "[2]", "value": "did not manifest any apparent cellular toxicity"},
      {"measurement": "a-wave amplitude", "setting": "[3]; adult C57BL/6 wild-type mice, KUS121 for 7 days, saline 203.5 ± 41.6, P = 0.56, in µV (unit assumed)", "value": "195.8 ± 30.2"},
      {"measurement": "b-wave amplitude", "setting": "[3]; adult C57BL/6 wild-type mice, KUS121 for 7 days, saline 425.8 ± 92.9, P = 0.86, in µV (unit assumed)", "value": "420.8 ± 52.6"},
      {"measurement": "change in the amplitude of a- and b-waves vs saline", "setting": "[3]; adult wild-type mice", "value": "no significant differences"},
      {"measurement": "aggregation of laminin γ1", "setting": "[4]", "value": "clearly prevented the aggregation of laminin γ1"}
    ]}
  ]
}
